Measurements reported in patent publication US11649255B2, “Indazoles as hematopoietic progenitor kinase 1 (HPK1) inhibitors and methods using same” (1st Biotherapeutics, Inc., priority 2020, dated 2023).
pEC50, pIC50: −log10 of the molar value. Read-outs that look alike come from different tables or passages of the source.

Assays:
recombinant human HPK1 = recombinant human HPK1 (Homo sapiens (Human), UniProt Q92918); experiment: HPK1 kinase assay (ADP-Glo); assay type: biochemical; details: 25 μM ATP, MBP substrate
Chain of recombinant human HPK1 (Q92918 whole entry): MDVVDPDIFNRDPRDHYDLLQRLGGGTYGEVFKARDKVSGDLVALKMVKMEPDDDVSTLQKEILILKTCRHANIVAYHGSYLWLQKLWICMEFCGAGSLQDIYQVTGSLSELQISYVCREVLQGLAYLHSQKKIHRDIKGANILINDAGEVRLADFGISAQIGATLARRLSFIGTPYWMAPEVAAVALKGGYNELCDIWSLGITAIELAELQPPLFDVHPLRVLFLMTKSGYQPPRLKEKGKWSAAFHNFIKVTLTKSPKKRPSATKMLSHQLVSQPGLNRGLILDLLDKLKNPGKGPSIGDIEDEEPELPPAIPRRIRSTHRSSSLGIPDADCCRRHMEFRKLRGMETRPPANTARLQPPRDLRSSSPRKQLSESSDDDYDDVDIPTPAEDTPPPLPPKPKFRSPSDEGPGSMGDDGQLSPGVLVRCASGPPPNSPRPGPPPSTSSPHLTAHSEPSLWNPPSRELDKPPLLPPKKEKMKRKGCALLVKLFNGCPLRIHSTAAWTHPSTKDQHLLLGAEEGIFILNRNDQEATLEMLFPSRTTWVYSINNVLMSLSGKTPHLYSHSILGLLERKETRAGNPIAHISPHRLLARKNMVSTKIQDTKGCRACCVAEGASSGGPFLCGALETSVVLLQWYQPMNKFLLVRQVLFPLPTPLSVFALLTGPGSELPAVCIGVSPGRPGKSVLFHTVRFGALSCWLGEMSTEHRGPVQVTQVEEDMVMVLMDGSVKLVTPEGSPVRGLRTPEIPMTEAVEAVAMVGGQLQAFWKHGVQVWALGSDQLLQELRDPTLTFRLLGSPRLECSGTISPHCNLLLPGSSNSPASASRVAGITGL
Procedure, shortened: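 Activity was read as ADP formed, detected by ADP-Glo luminescence after the reaction of 5 ng recombinant human HPK1 with MBP and ATP (stocks 0.5 μg/μl and 25 μM) for 40 min at 30 °C. Buffer was Tris pH 7.5 with MgCl2, BSA and DTT, with compound in 0.5% DMSO. IC50 came from inhibition curves.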

[1] = tested on: human peripheral blood pan T cells; experiment: IFNγ and IL-2 analysis of human peripheral pan T cells; assay type: cell-based; details: T-cell, CD3/CD28 bead stimulation, 100 nM Prostaglandin E2, 24 hr
Description: IFNγ and IL-2 Analysis of Human Peripheral Pan T Cells
Human peripheral blood pan T cells were purchased from STEMCELL™ Technologies Inc. Human peripheral blood pan T cells were thawed and suspended in DMEM media (10% FBS and 10 Penicillin/Streptomycin). 8×10^4 T cells were seeded in 96-well plate and incubated with various concentration of compounds and 100 nM Prostaglandin E2 for 1 hr. T cells were stimulated with Dynabeads Human T-Activator CD3/CD28 (Life Technologies) at a 1:3 cells: beads ratio. […] Data were analyzed with an MESO Quickplex SQ120 (Mesoscale Discovery).
In Table 3, the values represent + for >1000 nM, ++ 200-1,000 nM, +++ for <200 nM and − for not determined.

[2] = IFNγ secretion, read-out: IFNγ (EC50)
[3] = IL-2 secretion, read-out: IL-2 (EC50)

| pIC50 (recombinant human HPK1) | pEC50 [1, 2] | pEC50 [1, 3] | Structure (SMILES) |
| --- | --- | --- | --- |
| > 7.00 | 6.00 to 6.70 | – | CN(C)c1c(F)c(Cl)c(-c2ccc3nc(NC(=O)[C@@H]4C[C@@H]4F)sc3n2)c2cn[nH]c12 [Example 172, (1S,2S)-N-(5-(5-chloro-7-(dimethylamino)-6-fluoro-1H-indazol-4-yl)thiazolo[5,4-b]pyridin-2-yl)-2-fluorocyclopropane-1-carboxamide] |
| > 7.00 | 6.00 to 6.70 | – | O=C(Nc1cc2cc(-c3c(Cl)c(F)c(SCCO)c4[nH]ncc34)ccn2n1)[C@@H]1C[C@@H]1F [Example 520, (1S,2S)-N-(5-(5-chloro-6-fluoro-7-((2-hydroxyethyl)thio)-1H-indazol-4-yl)pyrazolo[1,5-a]pyridin-2-yl)-2-fluorocyclopropane-1-carboxamide] |
| > 7.00 | > 6.70 | < 6.00 | Cc1c(F)c(Cl)c(-c2ccn3nc(NC(=O)[C@@H]4C[C@@H]4F)cc3c2)c2cn[nH]c12 [Example 579, (1S,2S)-N-(5-(5-chloro-6-fluoro-7-methyl-1H-indazol-4-yl)pyrazolo[1,5-a]pyridin-2-yl)-2-fluorocyclopropane-1-carboxamide] |
| > 7.00 | 6.00 to 6.70 | – | Cc1c(F)c(C)c2[nH]ncc2c1-c1ccc2nc(NC(=O)[C@@H]3C[C@@H]3F)sc2n1 [Example 199, (1S,2S)-2-fluoro-N-(5-(6-fluoro-5,7-dimethyl-1H-indazol-4-yl)thiazolo[5,4-b]pyridin-2-yl)cyclopropane-1-carboxamide] |
| > 7.00 | > 6.70 | 6.00 to 6.70 | CCc1c(F)c(N(C)C)c2[nH]ncc2c1-c1ccc2nc(NC(=O)[C@@H]3C[C@@H]3F)cn2c1 [Example 291, (1S,2S)-N-(6-(7-(dimethylamino)-5-ethyl-6-fluoro-1H-indazol-4-yl)imidazo[1,2-a]pyridin-2-yl)-2-fluorocyclopropane-1-carboxamide] |
| > 7.00 | 6.00 to 6.70 | < 6.00 | CC(=O)N(C)c1c(F)c(Cl)c(-c2ccc3nc(NC(=O)[C@@H]4C[C@@H]4F)sc3c2)c2cn[nH]c12 [Example 123, (1S,2S)-N-(6-(5-chloro-6-fluoro-7-(N-methylacetamido)-1H-indazol-4-yl)benzo[d]thiazol-2-yl)-2-fluorocyclopropane-1-carboxamide] |
| > 7.00 | > 6.70 | 6.00 to 6.70 | CN(C)c1c(F)c(Cl)c(-c2ccc3nc(NC(=O)[C@@H]4C[C@@H]4F)cn3c2)c2cn[nH]c12 [Example 258, (1S,2S)—N-(6-(5-chloro-7-(dimethylamino)-6-fluoro-1H-indazol-4-yl)imidazo[1,2-a]pyridin-2-yl)-2-fluorocyclopropane-1-carboxamide] |
| > 7.00 | 6.00 to 6.70 | < 6.00 | CSc1c(F)cc2[nH]ncc2c1-c1ccn2nc(NC(=O)C3CC3)cc2c1 [Example 569, N-(5-(6-fluoro-5-(methylthio)-1H-indazol-4-yl)pyrazolo[1,5-a]pyridin-2-yl)cyclopropanecarboxamide] |
| > 7.00 | 6.00 to 6.70 | < 6.00 | CC(=O)N(C)c1c(F)c(Cl)c(-c2ccc3nc(NC(=O)[C@@H]4C[C@@H]4F)cn3c2)c2cn[nH]c12 [Example 316, (1S,2S)-N-(6-(5-chloro-6-fluoro-7-(N-methylacetamido)-1H-indazol-4-yl)imidazo[1,2-a]pyridin-2-yl)-2-fluorocyclopropane-1-carboxamide] |
| > 7.00 | > 6.70 | 6.00 to 6.70 | CSc1c(F)cc2[nH]ncc2c1-c1ccc2nc(NC(=O)[C@@H]3C[C@@H]3F)cn2c1 [Example 296, (1S,2S)-2-fluoro-N-(6-(6-fluoro-5-(methylthio)-1H-indazol-4-yl)imidazo[1,2-a]pyridin-2-yl)cyclopropane-1-carboxamide] |
| > 7.00 | 6.00 to 6.70 | – | CSc1c(F)c(C)c(-c2ccn3nc(NC(=O)[C@@H]4C[C@@H]4F)cc3c2)c2cn[nH]c12 [Example 488, (1S,2S)-2-fluoro-N-(5-(6-fluoro-5-methyl-7-(methylthio)-1H-indazol-4-yl)pyrazolo[1,5-a]pyridin-2-yl)cyclopropane-1-carboxamide] |
| > 7.00 | 6.00 to 6.70 | 6.00 to 6.70 | CC(C)Nc1c(F)c(Cl)c(-c2ccc3nc(NC(=O)[C@@H]4C[C@@H]4F)cn3c2)c2cn[nH]c12 [Example 359, (1S,2S)-N-(6-(5-chloro-6-fluoro-7-(isopropylamino)-1H-indazol-4-yl)imidazo[1,2-a]pyridin-2-yl)-2-fluorocyclopropane-1-carboxamide] |
| > 7.00 | > 6.70 | 6.00 to 6.70 | CCc1c(F)c(N(C)CC)c2[nH]ncc2c1-c1ccn2nc(NC(=O)[C@@H]3C[C@@H]3F)cc2c1 [Example 525, (1S,2S)-N-(5-(5-ethyl-7-(ethyl(methyl)amino)-6-fluoro-1H-indazol-4-yl)pyrazolo[1,5-a]pyridin-2-yl)-2-fluorocyclopropane-1-carboxamide] |
| > 7.00 | > 6.70 | 6.00 to 6.70 | CN(C)c1c(F)c(Cl)c(-c2ccc3nc(NC(=O)C4CC4)cn3c2)c2cn[nH]c12 [Example 327, N-(6-(5-chloro-7-(dimethylamino)-6-fluoro-1H-indazol-4-yl)imidazo[1,2-a]pyridin-2-yl)cyclopropanecarboxamide] |
| > 7.00 | > 6.70 | 6.00 to 6.70 | Cc1c(F)c(N(C)CCO)c2[nH]ncc2c1-c1ccn2nc(NC(=O)[C@@H]3C[C@@H]3F)cc2c1 [Example 557, (1S,2S)-2-fluoro-N-(5-(6-fluoro-7-((2-hydroxyethyl)(methyl)amino)-5-methyl-1H-indazol-4-yl)pyrazolo[1,5-a]pyridin-2-yl)cyclopropane-1-carboxamide] |
| > 7.00 | 6.00 to 6.70 | < 6.00 | CSc1c(F)c(SC)c2[nH]ncc2c1-c1ccc2nc(NC(=O)[C@@H]3C[C@@H]3F)sc2n1 [Example 170, (1S,2S)-2-fluoro-N-(5-(6-fluoro-5,7-bis(methylthio)-1H-indazol-4-yl)thiazolo[5,4-b]pyridin-2-yl)cyclopropane-1-carboxamide] |
| > 7.00 | 6.00 to 6.70 | – | CSc1c(F)c(F)c2[nH]ncc2c1-c1ccn2nc(NC(=O)[C@@H]3C[C@@H]3F)cc2c1 [Example 541, (1S,2S)-N-(5-(6,7-difluoro-5-(methylthio)-1H-indazol-4-yl)pyrazolo[1,5-a]pyridin-2-yl)-2-fluorocyclopropane-1-carboxamide] |
| > 7.00 | > 6.70 | < 6.00 | Cc1c(F)c(C(=O)N(C)C)c2[nH]ncc2c1-c1ccc2nc(NC(=O)[C@@H]3C[C@@H]3F)sc2c1 [Example 134, 6-fluoro-4-(2-((1S,2S)-2-fluorocyclopropane-1-carboxamido)benzo[d]thiazol-6-yl)-N,N,5-trimethyl-1H-indazole-7-carboxamide] |
| > 7.00 | > 6.70 | – | CCOc1c(F)c(C)c(-c2ccc3nc(NC(=O)[C@@H]4C[C@@H]4F)sc3n2)c2cn[nH]c12 [Example 175, (1S,2S)-N-(5-(7-ethoxy-6-fluoro-5-methyl-1H-indazol-4-yl)thiazolo[5,4-b]pyridin-2-yl)-2-fluorocyclopropane-1-carboxamide] |
